Results on three compounds are retold here after PMC6757289, “Design and Characterization of SGK3-PROTAC1, an Isoform Specific SGK3 Kinase PROTAC Degrader” (ACS Chemical Biology, 2019).

Common to all, as to type: cell-based
The test system of experiment [1] is phosphorylation of NDRG1 at Thr346. Briefly: NDRG1 phosphorylation in HEK293 cells, immunoblot. The conditions noted are these: HEK293, 8 h; for pNDRG1 phosphorylation: basal, no inhibition of Akt. The method, then:
Figure 3 Characterization of cellular activities of SGK3-PROTAC1 and cisSGK3-PROTAC1. (A) HEK293 cells were first treated for 8 h with 0.03–3 μM SGK3-PROTAC1 and cisSGK3-PROTAC1. One hour before lysis, cells were treated with 3 μM AZD5363. Lysates were subjected to immunoblot analysis with the indicated antibodies. […] Lysates were subjected to immunoblot analysis with the indicated antibodies. (C) HEK293 cells were treated for up to 48 h with SGK3-PROTAC1 (0.3 μM), and lysates were analyzed by immunoblot analysis using the indicated antibodies. (D) HEK293 cells were treated for 24 h with SGK3-PROTAC1. Cells were washed three times with DMEM to wash out the compound, and recovery of SGK3 expression protein was analyzed by immunoblot analysis. (E–G) As in A except that CAMA-1 (E), ZR-75-1 (F), and JIMT-1 (G) cells were employed rather than HEK293 cells.
To study the impact of SGK3-PROTAC1 on phosphorylation of a physiological substrate, we monitored phosphorylation of NDRG1 at Thr346.[37] This site is also phosphorylated by Akt; therefore we treated cells with increasing doses of SGK3-PROTAC1 and cisSGK3-PROTAC1 for 8 h, with the addition of an Akt inhibitor (3 μM AZD5363) 1 h before lysis, to remove the impact of Akt phosphorylation of NDRG1. […] Concentrations of cisSGK3-PROTAC1 of above 1 μM were required to lower NDRG1 phosphorylation. […] This is consistent with previous work in HEK293 cells showing that inhibition of both Akt and SGK3 is required to block NDRG1 phosphorylation.[8],[37]
All cell treatments were carried out as described in figure legends, to a final DMSO concentration of 0.1% (v/v). Lysates were quantified. Immunoblotting was performed using standard procedures, described in brief below. Lysate concentration was quantified by Bradford Assay, and 10 μg of lysate was loaded in the LDS sample buffer for SDS-PAGE electrophoresis on Novex 4–12% Bis–Tris gels. Proteins were electrophoretically transferred onto nitrocellulose membranes (Amersham Protran 0.45 μm NC; GE Healthcare) at 80 V for 80 min on ice in transfer buffer. Transferred membranes were blocked with 5% (w/v) nonfat dry milk dissolved in TBS-T [20 mM Tris/HCl, pH 7.5, 150 mM NaCl, and 0.1% (v/v) Tween 20] at RT for 30 min, before incubation with the primary antibody overnight at 4 °C. The signal was produced with near-infrared secondary antibodies and detected using a Licor Biosciences Odyssey System, and the signal was quantified in Image Studio Lite.
In general terms: In western blotting, separated proteins are transferred to a membrane and probed.

The subject of the next experiment is CAMA-1 cells. As to the kind of experiment: Cell growth (confluency, Incucyte S3). The conditions noted are these: for growth in combination with GDC0941 or AZD5363: 1 μM GDC0941 or AZD5363, SGK3-PROTAC1/cisSGK3-PROTAC1 0.3 μM, 14H 3 μM. The method, then:
(§1) Figure 6 SGK3-PROTAC1-mediated degradation of SGK3 further inhibiting the growth of cancer cell lines treated with PI3K-Akt pathway inhibitors. CAMA-1 (A, C) and ZR-75-1 (B, D) were treated with compounds as indicated either as monotherapy or in combination, and confluency was measured on the Incucyte S3 every 4 h for up to 4 weeks.
(§2) For growth assays, ZR-75-1 cells were seeded in 96-well plates at a density of 6000 cells/well and left to adhere overnight. Cells were then treated with compounds as described in the figure legends and imaged every 4 h on the Incucyte S3 (Essen Bioscience) for up to 4 weeks to give a measure of cell confluency. Media were refreshed every 4–5 days.
(§3) Supplementary Figure S3. SGK3-PROTAC compounds have no effect on cell growth. CAMA-1 and ZR-75-1
(§4) confluency was m easured every 4 h on Incucyte S3.
(§5) (1 picture or pasted object on this page, not shown here)

The subject of a further experiment is ZR-75-1 cells. As to the kind of experiment: Cell growth (confluency, Incucyte S3). The following applies: for growth in combination with GDC0941 or AZD5363: 1 μM GDC0941 or AZD5363, SGK3-PROTAC1/cisSGK3-PROTAC1 0.3 μM, 14H 3 μM. The method, then: as §1, §2, §3, §4, §5
[2] abbreviates: 0.3 μM SGK3-PROTAC1, 1 μM 14H, 1 μM 308-R.
Where [3] appears, read: in the presence of 3 μM AZD5363, 0.3 μM SGK3-PROTAC1, 1 μM 14H, 1 μM 308-R.
Setting [4] is: 0.1 μM, 3 μM AZD5363 1 h before lysis.

The structures appear in SMILES notation.

`Cc1ccc(F)c(S(=O)(=O)Nc2ccc(-c3nc(OC[C@H]4CNCCO4)c4cn[nH]c4n3)cc2)c1` [308-R, reference compound]: the pNDRG1 phosphorylation result in experiment [1] (setting [2]) was “minimal effect”. Also, the NDRG1 phosphorylation result in experiment [1] (setting [3]) is recorded as “markedly suppressed”.

With `Cc1ccc(F)c(S(=O)(=O)Nc2ccc(-c3nc(OC[C@H]4CN(CCCCCCOCCOCCOCC(=O)N[C@H](C(=O)N5C[C@H](O)C[C@H]5C(=O)NCc5ccc(-c6scnc6C)cc5)C(C)(C)C)CCO4)c4cn[nH]c4n3)cc2)c1` [SGK3-PROTAC1], the NDRG1 phosphorylation result is “reduced NDRG1 phosphorylation” in experiment [1] (setting [4]) and “markedly suppressed” in experiment [1] (setting [3]). The pNDRG1 phosphorylation entry in experiment [1] (setting [2]) was “minimal effect”. Further, the “growth, compound alone” value in the experiment on CAMA-1 cells (CAMA-1) and with ZR-75-1 cells (ZR-75-1) was “no effect on growth” throughout. The “suppression of growth compared with 14H (3 μM)” value was “to a similar extent” in the experiment with CAMA-1 cells (CAMA-1, 0.3 μM, with AZD5363 1 μM) and “to a similar extent” in the experiment on ZR-75-1 cells (ZR-75-1, 0.3 μM, with AZD5363 1 μM). Also, the “inhibition of cell growth compared with 14H (3 μM)” value in the experiment with CAMA-1 cells (CAMA-1, 0.3 μM, with GDC0941 1 μM) is reported as “to a greater extent”; with ZR-75-1 cells (ZR-75-1, 0.3 μM, with GDC0941 1 μM), “to a greater extent”. Further, the “growth in combination with GDC0941 or AZD5363” value in the experiment on CAMA-1 cells (CAMA-1) and in the experiment on ZR-75-1 cells (ZR-75-1) was “further reduced the growth” each time.

With `Cc1ccc(F)c(S(=O)(=O)Nc2ccc(-c3nc(OC[C@H]4CN(CCCCCCOCCOCCOCC(=O)N[C@H](C(=O)N5C[C@@H](O)C[C@H]5C(=O)NCc5ccc(-c6scnc6C)cc5)C(C)(C)C)CCO4)c4cn[nH]c4n3)cc2)c1` [cisSGK3-PROTAC1], the NDRG1 phosphorylation entry in experiment [1] (setting [4]) is given as “no effect”. In addition, in experiment [1] (3 μM AZD5363 1 h before lysis), the “concentration required to lower NDRG1 phosphorylation” value is on record as “above 1 μM”. The “growth in combination with GDC0941 or AZD5363” value in the experiment on CAMA-1 cells (CAMA-1) and in the experiment on ZR-75-1 cells (ZR-75-1) was “minimal effect” throughout.
